The target of the experiment is T1, A. thaliana PRORP1 (Arabidopsis thaliana, UniProt Q66GI4).
T1 construct: made in house
T1 sequence (Q66GI4 77-572): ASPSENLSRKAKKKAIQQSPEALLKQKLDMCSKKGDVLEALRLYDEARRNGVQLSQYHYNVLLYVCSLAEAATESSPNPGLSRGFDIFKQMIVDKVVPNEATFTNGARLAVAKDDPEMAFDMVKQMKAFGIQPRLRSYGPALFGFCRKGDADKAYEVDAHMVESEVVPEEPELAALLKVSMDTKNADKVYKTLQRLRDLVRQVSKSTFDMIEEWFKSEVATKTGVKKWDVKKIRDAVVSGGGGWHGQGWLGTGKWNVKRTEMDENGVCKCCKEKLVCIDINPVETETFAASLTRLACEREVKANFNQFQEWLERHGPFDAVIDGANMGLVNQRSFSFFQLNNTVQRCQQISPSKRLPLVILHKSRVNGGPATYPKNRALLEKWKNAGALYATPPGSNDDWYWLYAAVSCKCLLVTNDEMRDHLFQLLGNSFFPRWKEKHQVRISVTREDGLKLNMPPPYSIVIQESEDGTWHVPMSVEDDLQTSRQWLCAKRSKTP
As to the kind of experiment: FP cleavage assay, PRORP1 dose response. The note with it: for activity at 6.25 µM: read-out: PRORP1 Activity (%). Type of experiment: biochemical. The method, then:
Compounds gambogic acid (A) and juglone (B) were incubated with enzyme at double the reaction concentration for 30 min prior to the addition of an equal volume of substrate to initiate the reaction. PRORP1 reactions (shown in green) were performed with 0.3 nM PRORP1 and 800 nM pre-tRNA containing 40 nM Fl-pre-tRNA at 25 °C in 30 mM MOPS pH 7.8, 5 mM MgCl2, 100 mM NaCl, 1 mM TCEP, 500 nM (12 μg/ml) yeast tRNA, 5 mM spermidine, 6.65 μg/ml BSA, and 0.01% NP-40. MRPP1/2/3 reactions (shown in red) were performed using 50 nM MRPP3, 500 nM MRPP1/2, 500 nM pre-tRNA containing 40 nM Fl-pre-tRNA at 37 °C in 50 mM MOPS (pH 7.8), 1 mM TCEP, 4.5 mM MgCl2, and 100 mM NaCl. B. subtilis RNase P reactions (shown in blue) were performed using 20 nM RNase P and 500 nM pre-tRNA containing 40 nM Fl-pre-tRNA at 37 °C in 50 mM Tris, pH 7.2, 5 mM MgCl2, 100 mM KCl, 500 nM (12 μg/ml) yeast tRNA, 20 mM dithiothreitol (DTT), 10 mM spermidine, and 0.01% NP-40. Equation 1 was fit to each dataset.
The activity of PRORP1 catalyzed pre-tRNA cleavage was measured by monitoring the fluorescence anisotropy (FA) signal (λex = 485 nm and λem = 535 nm) over time at 25 °C in buffer conditions optimized for a high-throughput format, 30 mM MOPS pH 7.8, 5 mM MgCl2, 100 mM NaCl, 1 mM TCEP, 500 nM (12 μg/ml) yeast tRNA, 5 mM spermidine, 6.65 μg/ml BSA, and 0.01% NP-40. Yeast tRNA^mix (Roche) was used to reduce the number of compounds that inhibit PRORP1 activity by targeting tRNA. Prior to each reaction, pre-tRNA was heated for 3 min at 95 °C to unfold the RNA and refolded in the reaction buffer at room temperature (25 °C) for 30 min. Reactions were performed in black, 96-well plates (Corning Incorporation, #3686) using a TECAN plate-reader (Infinite F500, G-factor = 1.05) at 25 °C, and the FA values recorded. Reactions were initiated with the addition of substrate to enzyme. Experiments were done in the presence of excess substrate. The concentration of enzyme was 0.3 to 5 nM, the concentration of labeled substrate (Fl-pre-tRNA) was 40 nM, and the concentration of pre-tRNA was 120 to 4000 nM. The concentration of Fl-pre-tRNA was held constant in all reactions.
The dose response was measured using the FP assay as described above with varying concentrations of compound. Compounds were incubated with PRORP1 at twice the reaction concentration for 30 min prior to the addition of equal volumes of substrate to initiate the reaction. Experiments were done under multiple turnover conditions (same buffer conditions as the FP assay). […] PRORP1 activity was determined as a function of inhibitor concentration, and Equation 1 was fit to the data to determine the IC50 value. The standard error of the mean (SEM) is reported from the fit.(1) Activity(%)=100/1+([I]/IC50)^n

Where [1] appears, read: 6.25 μM of inhibitor, FP cleavage assay.

Read-outs that look alike come from different tables or passages of the source.

Consider `CC(=O)O[C@@H]1C[C@@]2(C)[C@H](c3ccoc3)C[C@H]3O[C@]32[C@]2(C)C(=O)C(O)=C3C(C)(C)C(=O)C=C[C@]3(C)[C@@H]12` [anthothecol], for which the activity at 6.25 µM under setting [1] stood at 15.5%.

As to `CN(C)c1ccc(C(=C2C=CC(=[N+](C)C)C=C2)c2ccc(N(C)C)cc2)cc1` [gentian violet], under setting [1], the activity at 6.25 µM came to 0%.

Regarding `CC(=O)[O][Hg][c]1ccccc1` [phenylmercuric acetate], the “PRORP1 Activity (%)” value under setting [1] is 32.2%.

`O=C1C(Cl)=C(Cl)C(=O)C(Cl)=C1Cl` [chloranil]: the activity at 6.25 µM under setting [1] turned out to be 40.2%.

For `COC(=O)/C(C)=C\C[C@@]12OC(C)(C)[C@@H]3C[C@@H](C=C4C(=O)c5c(O)c6c(c(CC=C(C)C)c5O[C@]431)O[C@](C)(CCC=C(C)C)C=C6)C2=O` [methyl gambogate], the activity at 6.25 µM was determined as 34.8%.

In the case of `O=C(O)C1=CC(=C(c2ccc(O)c(C(=O)O)c2)c2ccc(O)c(C(=O)O)c2)C=CC1=O` [aurintricarboxylic acid], under setting [1], the activity at 6.25 µM was 46.5%.

As to `CC1=CC(=O)c2c(O)cccc2C1=O` [plumbagin], under setting [1], the activity at 6.25 µM was determined as 2.6%.

For the molecule `Cc1cc(-c2ccc(/N=N/c3ccc4c(S(=O)(=O)O)cc(S(=O)(=O)O)c(N)c4c3O)c(C)c2)ccc1/N=N/c1ccc2c(S(=O)(=O)O)cc(S(=O)(=O)O)c(N)c2c1O` [evans blue], the activity at 6.25 µM under setting [1] is 20.2%.
